Laboratory results: paper PMC10182956 (Archives of Toxicology, 2023)
Several values for one entry are separate records, joined by “and”; a condition that tells them apart may be missing. Equal entries are not always repeated. Entries after “also recorded” stand apart in the source; their conditions may differ.

What was measured:
[1] = tested on: HepaRG cells; experiment: cells; conditions: Homo sapiens, 24 h, read-out: MMP: Benchmark concentration (µM) per imaging endpoint calculated with BMDS software
[2] = tested on: HepaRG cells; conditions: for Oxidative stress response (in words): population level, threshold ± 2 standard deviations of the response at the two lowest concentrations
[3] = tested on: HepaRG cells
[4] = human, cited from earlier work
[5] = Published in vivo pharmacokinetics (Css, plasma concentration, clearance); conditions: human; for hepatocyte CLint: hepatocytes (back-calculated, no incubation), in vitro intrinsic hepatic clearance calculated from in vivo clearance with formula 3, read-out: Calculated Clint (ul/min/10^6 cells); for In vivo Css (µM): calculated with Css = (Dose*F)/(Cl*dosing interval) or k0/Cl from published pharmacokinetic parameters, ref Bowsher et al. 1994, Welling et al. 1977
Procedure: For the model evaluation, Css of selected reference chemicals were predicted using formula 1 with the same dose rate from the in vivo Css measurements. […] The formula to calculate Clint was derived from the function calc_hepatic_clearance within the httk package. Predicted Css values were then compared to published in vivo Css values. If there was no published in vivo Css available, Css was then calculated based on published in vivo pharmacokinetic parameters using the following formula (Supplementary table 3)4 Css(mg/L)=(Dose×F)/(Cl×dosinginterval)
Supplementary table 3. Comparison of benchmark concentration and predicted Css with published pharmacokinetic values. Where indicated, in vivo derived Css values were calculated using following formula: Css = (Dose*F)/(Cl*dosing interval) or Css = k0/Cl with F = bioavailability, Cl = clearance, k0 = infusion rate and Css = steady state concentration.

[6] = tested on: HepaRG cells; experiment: High-content imaging assay: lipid accumulation (Bodipy lipid droplets); format: cell-based; conditions: HepaRG 24 h; for Lipid accumulation response (in words): population level, threshold ± 2 standard deviations of the response at the two lowest concentrations; for EC (BMC, 1 SD from control): Homo sapiens, lipid accumulation, Supplementary table 3, read-out: LA: Benchmark concentration (µM) per imaging endpoint calculated with BMDS software
[7] = parameters: method as in Literature column of Supplementary table 4; conditions: value added to httk database; ref Supplementary table 4; cited from earlier work
[8] = tested on: HepaRG cells; experiment: cells; conditions: Homo sapiens, 24 h, read-out: NM: Benchmark concentration (µM) per imaging endpoint calculated with BMDS software
Procedure: (§1) Cellular responses were quantified using a high-content imaging approach (Fig. 1). Based on cell viability assessment, concentrations below the EC50 level were tested in the high-content imaging assay. After 24 h chemical exposure, live cells were incubated with CellROX, which reflects hydroxyl radi [...

[9] = IVIVE derived median over all positive imaging endpoints; human simulation; Table 2
Procedure: In our study, a three-compartment steady state pharmacokinetic (PK) model was parameterized and used for the simulations. […] Human data were used except where otherwise stated. Steady-state concentration (Css) in the blood was calculated using formula 1 (Pearce et al. [2017])1 Cssmg/l=ko/(GFR×fup+Qliver+Qgut×fup×Clmetabolism/Qliver+Qgut+fup×Clmetabolism/Rblood2plasma) where ko = constant dose rate (mg/kg BW/day), fup = in vitro measured chemical fraction unbound in plasma, Clmetabolism = metabolic clearance scaled from in vitro intrinsic hepatic clearance, Rblood2plasma = ratio of blood concentration of a chemical to the plasma concentration, GFR = glomerular filtration rate (mean 5.17 ml/min/kg^3/4), Qliver = blood flow to the liver (mean 59.9 ml/min/kg^3/4), and Qgut = blood flow to the gut (mean 47.5 ml/min/kg^3/4). Fraction unbound, metabolic clearance, and Rblood2plasma values were obtained from the httk package or from literature. Recognizing that formula 1 is linear in dose rate (ko), oral equivalent doses (OED) were then calculated using the Css predicted for a 1 mg/kg/day dose rate as in formula 2 (Rotroff et al. [2010]).2 OEDmg/kg/day=BMCuM×1mg/kg/day/CssuM
The calculated OED corresponds to an oral daily dose which would lead to a plasma concentration equal to the in vitro-derived BMC. The OED is linearly related to the BMC and inversely related to Css. This equation is only valid for first-order metabolism (Rotroff et al. [2010]). A Monte Carlo analysis was used to simulate population variability in, GFR, Qliver, Qgut, and Clmetabolism across 1000 healthy individuals. Extrapolations were performed for each chemical and endpoint which was positive in the imaging assay. Every predicted parameter per chemical was then combined into one boxplot per endpoint, which contained all predicted OEDs across all positive endpoints.
Vice versa, predicted OED derived from BMC were compared to published exposure values of the corresponding chemicals. Simulations were performed in humans where pharmacokinetic parameters for humans were available; otherwise, estimations were calculated in rats or rabbits, as stated in Fig. 7.

[10] = parameters: method as in earlier work; conditions: fraction unbound plasma; human; ref Aegerion Pharmaceuticals 2012; Bowsher et al. 1994; Scheen 1996; cited from earlier work
[11] = tested on: HepaRG cells; experiment: Cell viability assessment (WST-1 assay); format: cell-based, human; conditions: Homo sapiens, 24 h exposure, reference chemicals, 95% CI in brackets, read-out: EC50 µM (95% CI) from cell viability (WST-1)
Text: Undifferentiated HepaRG cells were purchased from Biopredic international (Saint Grégoire, France). HepaRG cells have unlimited growth capacity and phenotypic stability, stable enzymatic activities over 4 weeks of cultivation, and similar metabolic function to primary human hepatocytes, and also avoid limitations of primary cells such as donor variability and phenotypic instability (Aninat et al. [2006]; Guillouzo et al. [2007]; Lambert et al. [2009]; Lübberstedt et al. [2011]; Andersson et al. [2012]). The line contains two cell types, hepatocyte-like and cholangiocyte-like cells (Parent et al. [2004]), which allows for elucidation of cell-specific toxicity (Jossé et al. [2008]). Cells were seeded at a density of approximately 27′000 cells/cm^2 into a 150 × 25 mm petri dish and were cultured for 2 weeks in William’s E medium (cat. nr.: 32,551,020, ThermoFisher Scientific, Massachusetts, USA) supplemented with 2 mM glutamine, 10% (v/v) fetal bovine serum (FBS) good forte (cat. nr.: P40-47,500, PAN-Biotech, Aidenbach, Germany), 100 U/ml penicillin and 100 µg/ml streptomycin (cat. nr.: 15,140,122, ThermoFisher Scientific, Massachusetts, USA), 5 µg/ml Gibco recombinant AOF insulin (cat. nr.: A11382II, ThermoFisher Scientific, Massachusetts, USA) and 50 µM hydrocortisone hemisuccinate (cat. nr.: H4881, Sigma-Aldrich, St. Louis, USA) at 37 °C and 5% CO2. Differentiation was induced by culturing the cells for another 2 weeks in the above mentioned medium supplemented with 1.7% DMSO. After 4 weeks in culture, differentiated HepaRG cells were seeded at a high density of approximately 227′000 cells/cm^2 (72,000 cells/well with 100 µl per well) into black 96-well plates with a clear bottom (cat.nr.: 3603, Corning, New York, USA) and maintained for 10 days. After 10 days, cells were first adapted to treatment medium (culture medium containing 0.5% DMSO and 2% FBS) for 48 h and then used for cell viability and high-content imaging analysis.
Cell viability was analyzed using the WST-1 assay which is based on the measurement of mitochondrial dehydrogenase activity (cat. nr: ab155902, Abcam, Cambridge, UK). HepaRG cells were exposed to chemicals at defined concentrations for 24 h. Triton X-100 (0.01%) was a positive control. One hour before the end of incubation period, 10 µl of WST-1 reagent was added to each well, quickly mixed by shaking the plate, and returned to the cell culture incubator (37 °C, 5% CO2). After 1 h, absorbance was measured (450 nm, reference wavelength 620 nm) using a plate reader (Infinite M200 Pro, Tecan group, Männerdorf, Switzerland). Absorbance was then subtracted from the reference wavelength, corrected for background by subtracting values measured without cells, and then normalized to the solvent control, which was set to 100%. Dose–response data were fitted using drc package (Version 3.0.1) (Ritz et al. [2015]) in R 3.6.1. Data were from at least 3 independent experiments with 6 technical replicates per condition.

[12] = tested on: HepaRG cells; conditions: HepaRG 24 h, population level; threshold ± 2 standard deviations of the response at the two lowest concentrations
Procedure: as §1

[13] = ref Bowsher et al. 1994, Scheen 1996
[14] = single cell analysis, highest concentration 250 µM

O=c1[nH]c(=O)n([C@@H]2O[C@H](CO)[C@@H](O)[C@@H]2F)cc1I [fialuridine]
EC (BMC, 1 SD from control) [1]: 6.3 µM
Oxidative stress response (in words) ([2]; HepaRG 24 h): neither induced lipid accumulation, had any consistent impact on oxidative stress
Concentration at which increase of MMP (hyperpolarization) was observed / exceeded the threshold ([3]; HepaRG 24 h): 25 µM
Mitochondrial membrane potential response (in words) ([3]; HepaRG 24 h, population level, threshold ± 2 standard deviations of the response at the two lowest concentrations): increased MMP
In vivo clearance (L/h): Nonrenal clearance [4, 13]: 2.06 L/h
In vivo clearance (L/h): Renal clearance [4, 13]: 4.21 L/h
In vivo clearance (L/h): Total clearance [4, 13]: 6.27 L/h
hepatocyte CLint [5]: 0.173 µL/min/1e6 cells
In vivo Css (µM) [5]: 0.6^3 µM
Lipid accumulation response (in words) [6]: neither induced lipid accumulation; also recorded: did not give rise to lipid accumulation
LogP [7]: -0.9
EC (BMC) [8]: 45.1 µM
OED [9]: 5.6 mg/kg/day
Fup [10]: 0.375

O=C(NC1CCN(CCCCC2(C(=O)NCC(F)(F)F)c3ccccc3-c3ccccc32)CC1)c1ccccc1-c1ccc(C(F)(F)F)cc1 [lomitapide]
EC (BMC, 1 SD from control) [1]: 0.58 µM
Oxidative stress response (in words) ([2]; HepaRG 24 h): no changes were observed
Concentration at which decrease of mitochondrial membrane potential exceeded the threshold ([3]; HepaRG 24 h): 12 µM
In vivo clearance (L/h) ([4]; after 50 mg p.o., ref Aegerion Pharmaceuticals 2012): 573.4656 (after 50 mg p.o.) L/h
hepatocyte CLint [5]: 48.3 µL/min/1e6 cells
In vivo Css (µM) [5]: 0.0002^3 µM
Lipid accumulation response (in words) [6]: not and did not give rise to lipid accumulation
LogP [7]: 8.2
EC (BMC) [8]: 4 µM
OED [9]: 1333 mg/kg/day
EC50 [11]: 13.5 µM
Number of apoptotic cells (nuclear morphology) response (in words) [12]: increased above the threshold
Fup [10]: 0.002

CN(C)C(=N)N=C(N)N [metformin]
Concentration at which decrease of oxidative stress fell below the threshold ([2]; HepaRG 24 h): 50,000 µM
Concentration at which decrease of mitochondrial membrane potential exceeded the threshold ([3]; HepaRG 24 h): 50,000 µM
In vivo Css ([4]; published, ref Birkett and Miners 1991, Graham et al. 2011, Freedman and Somberg 1991, Vasudev et al. 2001): 5.2 µM
hepatocyte CLint [5]: 4.01 µL/min/1e6 cells
Lipid accumulation response (in words) [6]: accumulated in a dose-dependent manner above the threshold; also recorded: having the potential to induce lipid accumulation
Concentration at which lipid accumulation was induced ([6]; increase): 25,000 µM and 50,000 µM
EC (BMC, 1 SD from control) [6]: 987 µM
EC (BMC) [8]: 1940 µM
OED [9]: 6778 mg/kg/day
Number of apoptotic cells (nuclear morphology) response (in words) [12]: increased above the threshold
Fup [10]: 0.99

CN(C)[C@@H]1C(O)=C(C(N)=O)C(=O)[C@@]2(O)C(O)=C3C(=O)c4c(O)cccc4[C@@](C)(O)[C@H]3C[C@@H]12 [tetracycline]
EC (BMC, 1 SD from control) [1]: 218 µM
Concentration at which increase of oxidative stress exceeded the threshold ([2]; HepaRG 24 h): 125 µM and 250 µM
OS: Benchmark concentration (µM) per imaging endpoint calculated with BMDS software ([2]; oxidative stress, HepaRG 24 h, Supplementary table 3): 69.7 µM
Oxidative stress in hepatocyte-like and cholangiocyte-like cells (in words) [2, 14]: oxidative stress levels were elevated in both cell types
Concentration at which decrease of mitochondrial membrane potential exceeded the threshold ([3]; HepaRG 24 h): 250 µM
Mitochondrial membrane potential in hepatocyte-like and cholangiocyte-like cells (in words) [3, 14]: decrease of mitochondrial membrane potential was observed in both cell types
In vivo Css (µM) [5]: 9.7^3 µM
Lipid accumulation response (in words) [6]: accumulated in a dose-dependent manner above the threshold
EC (BMC, 1 SD from control) [6]: 32.9 µM
EC (BMC) [8]: 32.7 µM
OED [9]: 30.2 mg/kg/day
EC50 [11]: 238 µM
Number of apoptotic cells (nuclear morphology) response (in words) [12]: increased above the threshold
